These results are taken from patent US12479866B2, “Boron-containing rho kinase inhibitors” (Percipiad, Inc., priority 2019, dated 2025).

Usually IC50 stands for the concentration at which inhibition is half-maximal.

Holding throughout (type): biochemical
One test concerns the target ROCK2 (Homo sapiens (Human), UniProt O75116). Briefly: ROCK2 ADP-Glo kinase enzyme inhibition assay. The settings on record: Exp #3; read-out: ROCK2 IC50(Exp #3). As to the method: We measured ROCK and PKA kinase enzyme activity inhibition by compounds using commercially available ROCK1 (Promega Corporation, cat #V9581), ROCK2 (Promega, cat #V4045), and PKA kinase (Promega, cat #V4247) ADP-Glo™ assay kits. ADP-Glo™ Kinase Assay is a luminescent ADP detection assay that provides a homogeneous method to measure kinase activity by quantifying the amount of ADP produced during a kinase reaction. The assay is performed in two steps. First, after the kinase reaction, an equal volume of ADP-Glo™ Reagent is added to terminate the kinase reaction and deplete the remaining ATP. Second, the Kinase Detection Reagent is added to simultaneously convert ADP to ATP and allow the newly synthesized ATP to be measured using a luciferase/luciferin reaction. The light generated is measured using a luminometer. A complete protocol is included with the kits and is also available at the Promega website. The assay is briefly described below. • 1. Diluted enzyme, substrate, ATP, and compounds (inhibitors) in Kinase Buffer (40 mM Tris, 7.5, 20 mM MgCl2, 0.1 mg/ml BSA, 50 μM DTT). • 2. Added 1 μl of inhibitor, 2 μl of enzyme and 2 μl of substrate/ATP mix to the wells of 384-well low volume nonbinding assay plate A series of three-fold dilution of inhibitor was prepared and assayed for each inhibitor. • 3. Incubated at room temperature for 60 minutes. • 4. Added 5 μl of ADP-Glo™ Reagent. • 5. Incubated at room temperature for 60 minutes. • 6. Added 10 μl of Kinase Detection Reagent • 7. Incubated at room temperature for 30 minutes.
Recorded luminescence (Integration time 1 second) using a plate-based luminometer.
Calculated Percent Enzyme Activity: First subtract the signal of the negative control (no enzyme and no inhibitor) from each sample's signal. Then use the mean relative light units (RLU) values for the 0% kinase activity (neither inhibitor nor enzyme) and the 100% kinase activity (no compound) to calculate the other percent enzyme activities remaining in the presence of the different dilutions of inhibitor.
Inhibitor stock solutions of 10 mM are made in DMSO and stored at −20° C. Dilutions were made in assay buffer immediately before use.
(In ADP-Glo the light output rises with the ADP produced.)

In another test the target is AKT1 (Homo sapiens (Human), UniProt P31749). Nature of the test: Kinase Selectivity Profiling General Panel (ADP-Glo). The conditions noted are these: 1 μM compound, read-out: Percent enzyme activity inhibition, AKT1. As to the method:
(§1) After this incubation, 5 μl of ADP-Glo™ reagent was added to 5 μl reaction and incubated for 40 minutes. Then, 10 μl of Kinase Detection Reagent added to all assay wells in the assay plate and incubated at room temperature for 30 minutes. […]

In the next test the target is AMPKA1/B1/G2 (Homo sapiens (Human), UniProt Q13131). Described as above. The conditions noted are these: 1 μM compound, read-out: Percent enzyme activity inhibition, AMPKA1/B1/G2. As to the method: as §1
The target in another test is Aurora A (Homo sapiens (Human), UniProt O14965). Described as above. The conditions noted are these: 1 μM compound, read-out: Percent enzyme activity inhibition, Aurora A. Here is the method:
as §1

The next test has as its target CAMK4 (Homo sapiens (Human), UniProt Q16566). The test is described as above. The settings on record: 1 μM compound, read-out: Percent enzyme activity inhibition, CAMK4. As to the method: as §1
The target of a further test is CK1a1 (Homo sapiens (Human), UniProt P48729). Described as above. The settings on record: 1 μM compound, read-out: Percent enzyme activity inhibition, CK1a1. As to the method:
as §1

Another test concerns the target CK1g1 (Homo sapiens (Human), UniProt Q9HCP0). The description is as above. The settings on record: 1 μM compound, read-out: Percent enzyme activity inhibition, CK1g1. Here is the method: as §1
The next test addresses CK2a1 (Homo sapiens (Human), UniProt P68400). The description is as above. The conditions noted are these: 1 μM compound, read-out: Percent enzyme activity inhibition, CK2a1. As to the method:
as §1

The next test deals with DAPK1 (Homo sapiens (Human), UniProt P53355). The test is described as above. The conditions noted are these: 1 μM compound, read-out: Percent enzyme activity inhibition, DAPK1. Here is the method: as §1
Another test addresses FGFR1 (Homo sapiens (Human), UniProt P11362). Described as above. The conditions noted are these: 1 μM compound, read-out: Percent enzyme activity inhibition, FGFR1. Here is the method: as §1
The target in the next test is GSK3b (Homo sapiens (Human), UniProt P49841). The description is as above. The settings on record: 1 μM compound, read-out: Percent enzyme activity inhibition, GSK3b. As to the method: as §1
For another test, the target named is IKKb (Homo sapiens (Human), UniProt O14920). The test is described as above. The settings on record: 1 μM compound, read-out: Percent enzyme activity inhibition, IKKb. Here is the method: as §1
A further test concerns the target IRAK4 (Homo sapiens (Human), UniProt Q9NWZ3). The test is described as above. The settings on record: 1 μM compound, read-out: Percent enzyme activity inhibition, IRAK4. As to the method: as §1
A further test deals with LCK (Homo sapiens (Human), UniProt P06239). The test is described as above. The conditions noted are these: 1 μM compound, read-out: Percent enzyme activity inhibition, LCK. As to the method: as §1
A further test concerns the target MAPKAPK2 (Homo sapiens (Human), UniProt P49137). The test is described as above. The conditions noted are these: 1 μM compound, read-out: Percent enzyme activity inhibition, MAPKAPK2. Here is the method:
as §1

For the next test, the target named is MINK1 (Homo sapiens (Human), UniProt Q8N4C8). Described as above. The conditions noted are these: 1 μM compound, read-out: Percent enzyme activity inhibition, MINK1. Here is the method:
as §1

The target in another test is PAK1/CDC42 (Homo sapiens (Human), UniProt Q13153). The test is described as above. The conditions noted are these: 1 μM compound, read-out: Percent enzyme activity inhibition, PAK1/CDC42. Here is the method:
as §1

The target in the next test is PKCa (Homo sapiens (Human), UniProt P17252). The test is described as above. The settings on record: 1 μM compound, read-out: Percent enzyme activity inhibition, PKCa. As to the method: as §1
A further test addresses ROCK1 (Homo sapiens (Human), UniProt Q13464). The description is as above. The settings on record: 1 μM compound, read-out: Percent enzyme activity inhibition, ROCK1. Here is the method:
as §1

For another test, the target named is SYK (Homo sapiens (Human), UniProt P43405). The description is as above. The settings on record: 1 μM compound, read-out: Percent enzyme activity inhibition, SYK. As to the method:
as §1

The next test addresses p38a (Homo sapiens (Human), UniProt Q16539). Described as above. The conditions noted are these: 1 μM compound, read-out: Percent enzyme activity inhibition, p38a. As to the method:
as §1

IRAK4, sequence (Q9NWZ3 whole entry): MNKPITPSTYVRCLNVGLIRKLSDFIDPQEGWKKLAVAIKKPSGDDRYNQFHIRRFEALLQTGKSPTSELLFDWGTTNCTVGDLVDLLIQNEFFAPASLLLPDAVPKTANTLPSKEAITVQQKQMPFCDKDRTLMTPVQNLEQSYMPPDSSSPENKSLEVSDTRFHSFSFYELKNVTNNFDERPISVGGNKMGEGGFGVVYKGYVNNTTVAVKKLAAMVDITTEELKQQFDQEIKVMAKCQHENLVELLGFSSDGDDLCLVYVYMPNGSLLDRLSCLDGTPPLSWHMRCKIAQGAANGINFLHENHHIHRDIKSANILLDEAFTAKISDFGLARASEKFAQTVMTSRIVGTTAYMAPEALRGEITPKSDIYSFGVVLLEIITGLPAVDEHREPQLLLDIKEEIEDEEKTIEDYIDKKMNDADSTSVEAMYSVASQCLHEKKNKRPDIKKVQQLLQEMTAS
CAMK4, sequence (Q16566 whole entry): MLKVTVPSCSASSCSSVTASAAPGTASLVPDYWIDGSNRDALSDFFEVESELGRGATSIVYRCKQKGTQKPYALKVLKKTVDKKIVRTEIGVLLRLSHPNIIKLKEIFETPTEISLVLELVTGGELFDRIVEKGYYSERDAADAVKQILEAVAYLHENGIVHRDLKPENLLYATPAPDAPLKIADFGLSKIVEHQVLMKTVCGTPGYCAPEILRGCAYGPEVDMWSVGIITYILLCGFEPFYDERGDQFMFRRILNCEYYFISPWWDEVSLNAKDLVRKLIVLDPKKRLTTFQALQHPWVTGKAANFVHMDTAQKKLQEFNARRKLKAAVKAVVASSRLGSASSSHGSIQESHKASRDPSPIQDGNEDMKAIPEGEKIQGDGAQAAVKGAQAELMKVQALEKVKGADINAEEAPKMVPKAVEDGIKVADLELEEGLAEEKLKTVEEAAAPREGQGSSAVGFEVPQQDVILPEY
ROCK2, sequence (O75116 whole entry): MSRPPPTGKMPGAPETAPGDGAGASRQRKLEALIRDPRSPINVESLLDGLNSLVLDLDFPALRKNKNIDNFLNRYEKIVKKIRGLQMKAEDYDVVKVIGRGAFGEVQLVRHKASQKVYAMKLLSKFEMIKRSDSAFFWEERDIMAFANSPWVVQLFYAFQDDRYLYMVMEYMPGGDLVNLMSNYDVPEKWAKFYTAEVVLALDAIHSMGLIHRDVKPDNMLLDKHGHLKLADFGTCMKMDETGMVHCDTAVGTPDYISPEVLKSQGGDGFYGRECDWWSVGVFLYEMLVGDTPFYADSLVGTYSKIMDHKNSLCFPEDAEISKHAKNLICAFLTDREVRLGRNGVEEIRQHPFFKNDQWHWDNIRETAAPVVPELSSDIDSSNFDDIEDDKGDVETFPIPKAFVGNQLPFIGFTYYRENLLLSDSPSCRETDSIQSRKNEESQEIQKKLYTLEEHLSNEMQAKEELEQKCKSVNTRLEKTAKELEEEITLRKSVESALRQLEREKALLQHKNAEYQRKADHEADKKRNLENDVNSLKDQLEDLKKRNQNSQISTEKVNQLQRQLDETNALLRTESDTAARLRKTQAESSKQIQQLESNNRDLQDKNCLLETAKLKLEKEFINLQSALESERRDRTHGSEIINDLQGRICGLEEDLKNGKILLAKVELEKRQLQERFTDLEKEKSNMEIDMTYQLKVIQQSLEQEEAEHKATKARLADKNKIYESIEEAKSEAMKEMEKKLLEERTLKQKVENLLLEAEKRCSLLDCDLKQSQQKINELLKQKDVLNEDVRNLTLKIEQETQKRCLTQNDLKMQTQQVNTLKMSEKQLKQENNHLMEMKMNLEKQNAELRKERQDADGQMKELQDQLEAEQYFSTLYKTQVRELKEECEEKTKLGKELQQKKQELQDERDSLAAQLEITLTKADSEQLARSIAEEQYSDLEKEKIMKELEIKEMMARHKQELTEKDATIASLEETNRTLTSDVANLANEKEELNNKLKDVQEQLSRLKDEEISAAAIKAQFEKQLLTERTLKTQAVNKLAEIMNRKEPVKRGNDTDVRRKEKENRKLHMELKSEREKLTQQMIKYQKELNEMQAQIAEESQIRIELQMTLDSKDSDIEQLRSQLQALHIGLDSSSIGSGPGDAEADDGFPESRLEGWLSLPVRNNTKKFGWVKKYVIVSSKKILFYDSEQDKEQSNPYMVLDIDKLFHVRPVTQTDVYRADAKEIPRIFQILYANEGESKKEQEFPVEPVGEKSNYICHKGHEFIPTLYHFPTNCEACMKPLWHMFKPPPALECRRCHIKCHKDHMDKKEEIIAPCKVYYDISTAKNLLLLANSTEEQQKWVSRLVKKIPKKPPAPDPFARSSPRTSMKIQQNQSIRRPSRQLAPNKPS
AMPKA1/B1/G2, sequence (Q13131 whole entry): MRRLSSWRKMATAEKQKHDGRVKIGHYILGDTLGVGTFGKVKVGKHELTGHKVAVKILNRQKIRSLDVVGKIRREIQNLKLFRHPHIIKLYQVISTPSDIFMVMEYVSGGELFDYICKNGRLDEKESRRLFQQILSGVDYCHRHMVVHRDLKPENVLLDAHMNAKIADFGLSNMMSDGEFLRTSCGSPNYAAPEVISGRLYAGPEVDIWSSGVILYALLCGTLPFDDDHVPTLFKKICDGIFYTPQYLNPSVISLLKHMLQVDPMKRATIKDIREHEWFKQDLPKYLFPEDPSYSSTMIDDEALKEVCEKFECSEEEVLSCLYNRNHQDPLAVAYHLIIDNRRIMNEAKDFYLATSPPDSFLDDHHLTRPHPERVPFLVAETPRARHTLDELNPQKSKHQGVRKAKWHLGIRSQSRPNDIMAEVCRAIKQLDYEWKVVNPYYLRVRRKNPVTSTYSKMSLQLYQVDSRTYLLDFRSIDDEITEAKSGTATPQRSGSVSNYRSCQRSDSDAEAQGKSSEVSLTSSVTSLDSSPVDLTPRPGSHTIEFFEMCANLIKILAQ
AMPKA1/B1/G2, sequence (Q9Y478 whole entry partner): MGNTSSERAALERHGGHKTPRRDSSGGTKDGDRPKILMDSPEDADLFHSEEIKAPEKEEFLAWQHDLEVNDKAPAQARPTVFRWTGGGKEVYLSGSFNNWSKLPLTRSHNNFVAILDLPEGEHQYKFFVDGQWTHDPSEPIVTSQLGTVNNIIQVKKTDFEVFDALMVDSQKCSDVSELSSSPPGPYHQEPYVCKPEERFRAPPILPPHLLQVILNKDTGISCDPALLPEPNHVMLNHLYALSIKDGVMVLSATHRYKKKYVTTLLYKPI
AMPKA1/B1/G2, sequence (Q9UGJ0 whole entry partner): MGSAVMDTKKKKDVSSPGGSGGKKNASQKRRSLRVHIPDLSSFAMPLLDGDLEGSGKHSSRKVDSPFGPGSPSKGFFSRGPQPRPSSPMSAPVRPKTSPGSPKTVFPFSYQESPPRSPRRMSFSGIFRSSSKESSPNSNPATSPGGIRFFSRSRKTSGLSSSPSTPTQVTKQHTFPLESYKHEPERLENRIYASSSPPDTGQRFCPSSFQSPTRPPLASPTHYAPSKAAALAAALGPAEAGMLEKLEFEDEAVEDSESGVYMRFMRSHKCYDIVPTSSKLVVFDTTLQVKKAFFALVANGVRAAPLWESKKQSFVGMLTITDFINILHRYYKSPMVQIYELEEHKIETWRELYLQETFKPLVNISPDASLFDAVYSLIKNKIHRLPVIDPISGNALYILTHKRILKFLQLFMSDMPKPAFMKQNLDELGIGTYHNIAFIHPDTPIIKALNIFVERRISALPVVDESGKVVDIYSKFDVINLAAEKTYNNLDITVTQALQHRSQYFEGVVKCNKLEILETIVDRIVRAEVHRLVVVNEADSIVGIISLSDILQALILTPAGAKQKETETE
CK1g1, sequence (Q9HCP0 whole entry): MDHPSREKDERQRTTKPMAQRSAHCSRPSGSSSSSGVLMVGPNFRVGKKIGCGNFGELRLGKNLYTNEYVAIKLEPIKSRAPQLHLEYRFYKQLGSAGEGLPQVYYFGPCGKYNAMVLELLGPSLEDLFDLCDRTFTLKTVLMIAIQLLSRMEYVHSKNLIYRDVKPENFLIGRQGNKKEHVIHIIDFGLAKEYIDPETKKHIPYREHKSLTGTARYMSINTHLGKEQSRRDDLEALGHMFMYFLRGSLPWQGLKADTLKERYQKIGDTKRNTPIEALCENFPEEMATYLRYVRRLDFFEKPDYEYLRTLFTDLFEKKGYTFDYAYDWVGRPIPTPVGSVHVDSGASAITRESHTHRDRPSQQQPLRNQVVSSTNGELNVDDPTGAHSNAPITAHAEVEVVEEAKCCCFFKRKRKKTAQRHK

In the case of `Cl.Cl.NCC(C(=O)Nc1ccc2cnccc2c1)c1ccc(B(O)O)cc1` (stereo not drawn) [Compound 10•2HCl], the IC50 on ROCK2 came out at 28 nM. Moreover, the inhibition at 1 µM on AKT1 came to 55%; at AMPKA1/B1/G2, 58%; on Aurora A, 21%; at CAMK4, 7%; at CK1a1, 0%; on CK1g1, 0%. The inhibition at 1 µM at CK2a1 is 3%; at DAPK1 it was 20%; at FGFR1, 35%; at GSK3b, 0%; on IKKb it was 0%; on IRAK4, 0%. Moreover, the inhibition at 1 µM was 0% at LCK; 30% at MAPKAPK2; 3% at MINK1; 0% at PAK1/CDC42; 72% at PKCa; 98% at ROCK1. The results for the inhibition at 1 µM on SYK and on p38a were 2% and 0%, respectively.
